Test results: patent publication US10980231B2, “Insect repellent” (Kao Corporation, priority 2015, dated 2021)

System: Asian tiger mosquito
Assay: Evaluation of inhibition of seeking behavior of mosquito for human arm (landing count)
Assay type: in vivo
Set-up: tested at 0.1 vol %
Details: sample 0.1 vol % in ethanol on breathable sheet on arm; landings in 5 minutes vs ethanol only; female mosquitoes
Protocol: Mosquitoes were prepared for evaluation in the same manner as in Example 1. Approximately 150 to 200 female Asian tiger mosquitoes were transferred in a plastic cage (30×30×30 cm). […] The other three sides were covered with a net, preventing a smell from remaining in the box. A breathable sheet for disposable diapers (air permeance (JIS P8117): 2 sec/300 mL·32 sheets or higher, water vapor transmission rate (JIS Z0208): 1 g/100 cm^2·1 hr or higher) was cut into a size of 6 cm×6 cm, and the resultant was fixed with a tape to the inner side of a Qualatex glove (AS ONE 8-4053-02) cut in 5 cm×5 cm, and […] of an evaluation sample, the concentration of which had been adjusted to 0.1 vol % with ethanol, was uniformly applied onto the breathable sheet. After the application, the resultant was left to stand for approximately 5 minutes, and the attraction test was conducted. The arm was covered with the Qualatex glove provided with the breathable sheet, and inserted in the plastic cage. After the insertion, the number of mosquitoes which landed on the breathable sheet in 5 minutes was counted. In the case that a mosquito landed a plurality of times, all of the landings were counted. In view of the influence of a sample on the mosquitoes, the test was conducted just four times in one cage, and the cage was then replaced with another cage and other mosquitoes were used for the subsequent tests. The inhibitory rate relative to the number of landings with application of ethanol solvent only was calculated to determine the inhibitory effect. Inhibitory rate (%)=100×(1−[number of landings with application of sample]/[number of landings with application of ethanol]) (Equation 2)

Compound | Inhibitory rate (%)
CCCCCCCCCCO [1-Decanol, 1-decanol] | 97.5%
C=CC(O)CCCCC (centres unmarked) [1-Octen-3-ol, 1-octen-3-ol] | 70.5%
CC1=CC(C)C(CO)C(C)C1 (centres unmarked) [2,4,6-Trimethyl-3-cyclohexene-1-methanol, 2,4,6-trimethyl-3-cyclohexene-1-methanol] | 89%
CCCc1ccc(O)c(OC)c1 [2-Methoxy-4-propylphenol, 2-methoxy-4-propylphenol] | 100%
C=CCCCCCCCCO [9-Decen-1-ol, 9-decen-1-ol] | 93.5%
CCOC(=O)C(C)C1CCCCC1 (centres unmarked) [Ethyl 2-cyclohexylpropionate, ethyl 2-cyclohexylpropionate] | 58%
CCCCC(CC)C(=O)OCC (centres unmarked) [Ethyl 2-ethylhexanoate, ethyl 2-ethylhexanoate] | 66%
CCOC(=O)Cc1ccccc1 [Ethyl phenylacetate, ethyl phenylacetate] | 38.5%
CCC/C=C/COC(C)=O [trans-2-Hexenyl acetate, trans-2-hexenyl acetate] | 54%

System: insects
Assay: not given
Details: repellent use; cited from earlier work

Compound | duration
CCN(CC)C(=O)c1cccc(C)c1 [DEET, N,N-diethyl-3-methylbenzamide] | 2 to 3 h

System: not given
Assay: not given
Details: cited from earlier work

Compound | skin permeability
CCN(CC)C(=O)c1cccc(C)c1 [DEET, N,N-diethyl-3-methylbenzamide] | high skin permeability
